Experimental data published in ChEMBL document CHEMBL6182889, “Discovery of the first-in-class DOT1L PROTAC degrader” (Eur J Med Chem, 2025).
Active and inactive are the calls of the source. The calls are words filed in the database; no cut-off is given here.

Experiments:
[1] = target: T1, von Hippel-Lindau disease tumor suppressor/Histone-lysine N-methyltransferase, H3 lysine-79 specific (Homo sapiens, UniProt Q8TEK3+P40337); assay: PROTAC activity at VHL/DOTIL in mixed-lineage leukemia rearranged (MLL-r) human THP-1 cells assessed as induction of DOT1L degradation by measuring fold change in DOTIL protein level at 0.3 uM incubated for 24 hrs by western blot analysis relative to control; type: cell-based
[2] = target: T1, von Hippel-Lindau disease tumor suppressor/Histone-lysine N-methyltransferase, H3 lysine-79 specific; assay: PROTAC activity at VHL/DOTIL in mixed-lineage leukemia rearranged (MLL-r) human THP-1 cells assessed as induction of DOT1L degradation by measuring fold change in DOTIL protein level at 3 uM incubated for 24 hrs by western blot analysis relative to control; type: cell-based
MOLM-13 = assay: Antiproliferative activity against mixed-lineage leukemia rearranged (MLL-r) human MOLM-13 cells assessed as inhibition of cell growth incubated for 7 days by CCK-8 assay; type: functional, cell-based; conditions: time 7.0 day
[3] = target: Histone-lysine N-methyltransferase, H3 lysine-79 specific (Homo sapiens) (UniProt Q8TEK3); assay: Inhibition of human DOT1L using oligonucleosomes and SAM as substrate at 4.6 nM by radiometric Hotspot assay
MV4-11 = assay: Antiproliferative activity against mixed-lineage leukemia rearranged (MLL-r) human MV4-11 cells assessed as inhibition of cell growth incubated for 7 days by CCK-8 assay; type: functional; conditions: time 7.0 day
[4] = target: Histone-lysine N-methyltransferase, H3 lysine-79 specific (Homo sapiens) (UniProt Q8TEK3); assay: Inhibition of human DOT1L using oligonucleosomes and SAM as substrate at 1.1 to 3.3 uM by radiometric Hotspot assay; conditions: dose 1.1-3.3 µM

T1 sequence (P40337 whole entry, looked up): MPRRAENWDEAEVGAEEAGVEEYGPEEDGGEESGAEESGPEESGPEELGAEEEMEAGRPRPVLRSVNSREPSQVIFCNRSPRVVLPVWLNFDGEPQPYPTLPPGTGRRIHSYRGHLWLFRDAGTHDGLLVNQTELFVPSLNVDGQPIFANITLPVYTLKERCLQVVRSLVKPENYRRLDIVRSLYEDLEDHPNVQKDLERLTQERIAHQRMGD
T1 sequence (Q8TEK3 whole entry, looked up): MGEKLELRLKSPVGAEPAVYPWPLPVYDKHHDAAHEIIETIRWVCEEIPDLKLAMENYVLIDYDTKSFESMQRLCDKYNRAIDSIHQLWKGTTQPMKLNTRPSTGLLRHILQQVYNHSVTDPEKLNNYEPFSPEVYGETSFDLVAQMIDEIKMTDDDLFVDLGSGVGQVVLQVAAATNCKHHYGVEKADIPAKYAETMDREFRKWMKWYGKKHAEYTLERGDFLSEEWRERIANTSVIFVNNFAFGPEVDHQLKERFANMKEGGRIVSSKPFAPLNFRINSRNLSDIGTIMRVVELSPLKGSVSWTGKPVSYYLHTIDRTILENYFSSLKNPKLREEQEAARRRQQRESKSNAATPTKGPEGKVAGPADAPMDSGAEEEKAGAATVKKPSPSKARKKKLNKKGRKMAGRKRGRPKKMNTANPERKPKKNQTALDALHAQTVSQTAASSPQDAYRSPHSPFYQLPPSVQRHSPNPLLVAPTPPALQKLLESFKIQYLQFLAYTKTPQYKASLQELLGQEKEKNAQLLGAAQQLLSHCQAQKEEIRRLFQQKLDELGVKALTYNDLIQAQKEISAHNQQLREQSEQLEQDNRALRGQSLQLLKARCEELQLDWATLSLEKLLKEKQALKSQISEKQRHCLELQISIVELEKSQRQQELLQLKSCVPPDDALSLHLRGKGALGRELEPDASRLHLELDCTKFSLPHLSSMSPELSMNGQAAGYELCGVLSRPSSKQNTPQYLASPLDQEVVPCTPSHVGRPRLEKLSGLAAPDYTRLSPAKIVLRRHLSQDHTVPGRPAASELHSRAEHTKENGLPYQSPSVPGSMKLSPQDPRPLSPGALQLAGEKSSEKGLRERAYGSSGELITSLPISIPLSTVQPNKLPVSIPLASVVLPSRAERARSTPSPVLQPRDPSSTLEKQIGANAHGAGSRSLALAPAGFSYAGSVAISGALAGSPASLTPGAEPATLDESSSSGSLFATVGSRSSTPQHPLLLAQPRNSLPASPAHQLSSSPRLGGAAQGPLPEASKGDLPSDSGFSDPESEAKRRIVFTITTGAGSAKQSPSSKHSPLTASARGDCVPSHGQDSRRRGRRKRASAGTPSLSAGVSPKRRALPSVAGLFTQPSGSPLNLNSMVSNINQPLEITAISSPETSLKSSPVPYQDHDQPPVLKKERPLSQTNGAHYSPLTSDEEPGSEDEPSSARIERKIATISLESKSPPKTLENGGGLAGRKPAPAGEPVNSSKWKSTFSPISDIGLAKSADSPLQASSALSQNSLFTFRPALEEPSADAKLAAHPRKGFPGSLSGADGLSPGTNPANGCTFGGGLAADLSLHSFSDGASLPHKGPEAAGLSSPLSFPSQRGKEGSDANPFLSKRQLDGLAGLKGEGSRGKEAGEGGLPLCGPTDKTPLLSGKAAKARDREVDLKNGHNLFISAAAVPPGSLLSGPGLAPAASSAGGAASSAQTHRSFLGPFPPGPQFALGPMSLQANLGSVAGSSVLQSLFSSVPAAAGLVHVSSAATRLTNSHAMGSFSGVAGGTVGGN
Sequence of Histone-lysine N-methyltransferase, H3 lysine-79 specific (Homo sapiens) (Q8TEK3 whole entry, looked up): as above

Row | Structure (SMILES) | fold change (FC) [1] | fold change (FC) [2] | inhibition [3] [%] | inhibition [4] [%] | Activity (MOLM-13) | Activity (MV4-11)
1 | Cc1ncsc1-c1ccc(CNC(=O)[C@@H]2C[C@@H](O)CN2C(=O)[C@@H](NC(=O)CCCCCCNC(=O)COc2nc(N)nc(Nc3cc(S(N)(=O)=O)ccc3N[C@@H](c3cccc4c3OC(F)(F)O4)c3ncccc3Cl)n2)C(C)(C)C)cc1 | 0.99 | 1.17 |  |  |  | 
2 | COc1nc(N)nc(Nc2cc(S(N)(=O)=O)ccc2N[C@@H](c2cccc3c2OC(F)(F)O3)c2ncccc2Cl)n1 | 1.29 | 1.57 |  |  | Active; Reduced Potency In Molm-13 Cells Relative To Mv4-11 Cells Observed | 
3 | CC(C)N(C[C@H]1O[C@@H](n2cnc3c(N)ncnc32)[C@H](O)[C@@H]1O)[C@H]1C[C@@H](CCc2nc3cc(C(C)(C)C)ccc3[nH]2)C1 | 1.07 | 1.03 |  |  | Active; Reduced Potency In Molm-13 Cells Relative To Mv4-11 Cells Observed | 
4 | Cc1ncsc1-c1ccc(CNC(=O)[C@@H]2C[C@@H](O)CN2C(=O)[C@@H](NC(=O)CCCCCNC(=O)COc2nc(N)nc(Nc3cc(S(N)(=O)=O)ccc3N[C@@H](c3cccc4c3OC(F)(F)O4)c3ncccc3Cl)n2)C(C)(C)C)cc1 | 1.52 | 1.11 |  |  |  | 
5 | Cc1ncsc1-c1ccc(CNC(=O)[C@@H]2C[C@@H](O)CN2C(=O)[C@@H](NC(=O)CCNC(=O)COc2nc(N)nc(Nc3cc(S(N)(=O)=O)ccc3N[C@@H](c3cccc4c3OC(F)(F)O4)c3ncccc3Cl)n2)C(C)(C)C)cc1 | 0.82 | 0.95 |  |  |  | 
6 | Cc1ncsc1-c1ccc(CNC(=O)[C@@H]2C[C@@H](O)CN2C(=O)[C@@H](NC(=O)CCCNC(=O)COc2nc(N)nc(Nc3cc(S(N)(=O)=O)ccc3N[C@@H](c3cccc4c3OC(F)(F)O4)c3ncccc3Cl)n2)C(C)(C)C)cc1 | 0.99 | 1.2 |  |  |  | 
7 | Cc1ncsc1-c1ccc(CNC(=O)[C@@H]2C[C@@H](O)CN2C(=O)[C@@H](NC(=O)CCCCCCCNC(=O)COc2nc(N)nc(Nc3cc(S(N)(=O)=O)ccc3N[C@@H](c3cccc4c3OC(F)(F)O4)c3ncccc3Cl)n2)C(C)(C)C)cc1 | 1.01 | 0.83 |  |  |  | 
8 | CC(=O)Nc1nc(Nc2cc(S(=O)(=O)NC(C)=O)ccc2N(C(C)=O)[C@@H](c2cccc3c2OC(F)(F)O3)c2ncccc2Cl)nc(OCC(=O)NCCCCCCNC(=O)C[C@H](NC(=O)C2CC(O)CN2C(=O)[C@@H](NC(=O)C2(F)CC2)C(C)(C)C)c2ccc(-c3scnc3C)cc2)n1 (single isomer, unassigned) | 1.1 | 1.11 |  | > 50 | inactive | inactive
9 | Cc1ncsc1-c1ccc(CNC(=O)[C@@H]2C[C@@H](O)CN2C(=O)[C@@H](NC(=O)CCCCNC(=O)COc2nc(N)nc(Nc3cc(S(N)(=O)=O)ccc3N[C@@H](c3cccc4c3OC(F)(F)O4)c3ncccc3Cl)n2)C(C)(C)C)cc1 | 0.99 | 1.17 |  |  |  | 

Now from value to compound, other results behind:

Row | fold change (FC) [1] | fold change (FC) [2] | inhibition [3] [%] | inhibition [4] [%] | Structure (SMILES) | Activity (MOLM-13) | Activity (MV4-11)
10 | 0.52 | 0.56 |  |  | Cc1ncsc1-c1ccc([C@H](CC(=O)NCCCCCCCCNC(=O)COc2nc(N)nc(Nc3cc(S(N)(=O)=O)ccc3N[C@@H](c3cccc4c3OC(F)(F)O4)c3ncccc3Cl)n2)NC(=O)[C@@H]2C[C@@H](O)CN2C(=O)[C@@H](NC(=O)C2(F)CC2)C(C)(C)C)cc1 |  | 
11 | 0.83 | 0.55 |  |  | Cc1ncsc1-c1ccc([C@H](CC(=O)NCCNC(=O)COc2nc(N)nc(Nc3cc(S(N)(=O)=O)ccc3N[C@@H](c3cccc4c3OC(F)(F)O4)c3ncccc3Cl)n2)NC(=O)[C@@H]2C[C@@H](O)CN2C(=O)[C@@H](NC(=O)C2(F)CC2)C(C)(C)C)cc1 |  | 
12 | 0.99 | 1.05 | > 95 |  | Cc1ncsc1-c1ccc([C@H](CC(=O)NCCCCCCNC(=O)COc2nc(N)nc(Nc3cc(S(N)(=O)=O)ccc3N[C@@H](c3cccc4c3OC(F)(F)O4)c3ncccc3Cl)n2)NC(=O)[C@@H]2C[C@H](O)CN2C(=O)[C@@H](NC(=O)C2(F)CC2)C(C)(C)C)cc1 | inactive | Active
13 | 0.58 | 0.6 |  |  | Cc1ncsc1-c1ccc([C@H](CC(=O)NCCCCNC(=O)COc2nc(N)nc(Nc3cc(S(N)(=O)=O)ccc3N[C@@H](c3cccc4c3OC(F)(F)O4)c3ncccc3Cl)n2)NC(=O)[C@@H]2C[C@@H](O)CN2C(=O)[C@@H](NC(=O)C2(F)CC2)C(C)(C)C)cc1 |  | 
14 | 0.72 | 0.28 |  |  | Cc1ncsc1-c1ccc([C@H](CC(=O)NCCCNC(=O)COc2nc(N)nc(Nc3cc(S(N)(=O)=O)ccc3N[C@@H](c3cccc4c3OC(F)(F)O4)c3ncccc3Cl)n2)NC(=O)[C@@H]2C[C@@H](O)CN2C(=O)[C@@H](NC(=O)C2(F)CC2)C(C)(C)C)cc1 |  | 
15 | 0.36 | 0.33 |  |  | Cc1ncsc1-c1ccc([C@H](CC(=O)NCCCCCCCNC(=O)COc2nc(N)nc(Nc3cc(S(N)(=O)=O)ccc3N[C@@H](c3cccc4c3OC(F)(F)O4)c3ncccc3Cl)n2)NC(=O)[C@@H]2C[C@@H](O)CN2C(=O)[C@@H](NC(=O)C2(F)CC2)C(C)(C)C)cc1 |  | 
16 | 0.9 | 0.36 |  |  | Cc1ncsc1-c1ccc([C@H](CC(=O)NCCCCCNC(=O)COc2nc(N)nc(Nc3cc(S(N)(=O)=O)ccc3N[C@@H](c3cccc4c3OC(F)(F)O4)c3ncccc3Cl)n2)NC(=O)[C@@H]2C[C@@H](O)CN2C(=O)[C@@H](NC(=O)C2(F)CC2)C(C)(C)C)cc1 |  | 
